According to patent US7071167B2 (L'Oreal, priority 2002, dated 2006):
Values joined by “and” are separate entries in the source; they are usually repeats but may differ in a detail not shown here. Identical values can stand only once.

System: Ca^2+ channel (L, verapamil site)
Experiment: Equilibrium binding competition on type-L calcium channels, verapamil site ([3H](-)D 888 displacement)
Set-up: species or system rat
Settings: for Mean % of binding / % of binding / Mean % of inhibition: Argireline 1.0%, magnesium gluconate 1 × 10^−4 M, combination 1 × 10^−4 M/1.0%; for % of binding: individual determinations, specific binding of 0.5 nM (3H)(-)D 888, rat cerebral cortex homogenates; for Mean % of inhibition: inhibition of specific binding
Experimental: The studies were performed using rat cerebral cortex homogenates (isolated membranes having type-L calcium channels at their surface).
The principle of an equilibrium displacement experiment includes measuring the specific binding at equilibrium, of a given concentration of radiolabelled ligand in the presence of a variable and increasing concentration of cold ligand. The cold ligand enters into competition with the radioactive ligand for its binding to the receptor; this is why this may be termed binding competition at equilibrium.
The experimental conditions according to the protocol described by Reynolds, I. J. et al., J. Pharmacol. Exp. Ther., vol. 237, p.
D 888 and D 600 are the reference molecules specific for the type-L calcium channels, verapamil site.
The specific binding of a ligand (labelled D 888) to the receptors (type-L calcium channels, verapamil site) is defined as the difference between the total binding and the […] determined in the presence of an excess of cold ligand. The results are expressed as a percentage of specific binding and as a percentage of inhibition of specific binding in the presence of the test compounds (Argireline®).

Row | Substance | Mean % of binding [%] | mean percentage of inhibition (Argireline at 5%) [%] | mean percentage of inhibition (Argireline at 10%) [%] | % of binding | Mean % of inhibition [%] | effect on the type-L calcium channels, verapamil site (in words) (used alone at concentrations of 1×10^−6 M to 1×10^−4 M)
1 | Acetyl glutamyl-glutamyl-methionyl-glutaminyl-arginyl-arginylamide (Ac-EEMQRR-NH2) [Argireline ®, supplied at 0.05% in water] | 96.1 | 36 | 52 | 95.1% and 93.1% and 99.9% | 4 | –
2 | Magnesium gluconate | 94.0 | – | – | 93.8% and 95.2% and 93.0% | 6 | moderate effects
